Source: the kinase profiling compilation of Christmann-Franck et al. (2016)

Assays:
Experiment in all cases: radiometric filter-binding kinase assay, Kinase HotSpot
Settings in all cases: compound 0.5 µM; ATP 10 µM
ABL2 (human) = ABL2 (human) (UniProt P42684)
AKT3 (human) = AKT3 (human) (UniProt Q9Y243)
ALK (human) = ALK (human) (UniProt Q9UM73)
CAMK2A (human) = CAMK2A (human) (UniProt Q9UQM7)
CDK5 CDK5R1 p25 (human) = CDK5 CDK5R1 p25 (human) (UniProt Q00535+Q15078)
CDK6 CCND3 (human) = CDK6 CCND3 (human) (UniProt P30281+Q00534)
CDK9 CCNT1 (human) = CDK9 CCNT1 (human) (UniProt P50750+O60563)
CHEK2 (human) = CHEK2 (human) (UniProt O96017)
CSNK1A1 (human) = CSNK1A1 (human) (UniProt P48729)
DAPK2 (human) = DAPK2 (human) (UniProt Q9UIK4)
EPHA7 (human) = EPHA7 (human) (UniProt Q15375)
EPHB2 (human) = EPHB2 (human) (UniProt P29323)
ERBB2 (human) = ERBB2 (human) (UniProt P04626)
FGR (human) = FGR (human) (UniProt P09769)
GSK3A (human) = GSK3A (human) (UniProt P49840)
HCK (human) = HCK (human) (UniProt P08631)
HIPK4 (human) = HIPK4 (human) (UniProt Q8NE63)
MAP3K14 (human) = MAP3K14 (human) (UniProt Q99558)
MAP3K2 (human) = MAP3K2 (human) (UniProt Q9Y2U5)
MAP3K7 TAB1 (human) = MAP3K7 TAB1 (human) (UniProt O43318+Q15750)
MAP3K8 (human) = MAP3K8 (human) (UniProt P41279)
MAPK10 (human) = MAPK10 (human) (UniProt P53779)
MAPK9 (human) = MAPK9 (human) (UniProt P45984)
MARK3 (human) = MARK3 (human) (UniProt P27448)
MKNK2 (human) = MKNK2 (human) (UniProt Q9HBH9)
MLTK (human) = MLTK (human) (UniProt Q9NYL2)
MYLK2 (human) = MYLK2 (human) (UniProt Q9H1R3)
NTRK1 (human) = NTRK1 (human) (UniProt P04629)
NUAK2 (human) = NUAK2 (human) (UniProt Q9H093)
PKN2 (human) = PKN2 (human) (UniProt Q16513)
PLK3 (human) = PLK3 (human) (UniProt Q9H4B4)
PRKACA (human) = PRKACA (human) (UniProt P17612)
PRKCG (human) = PRKCG (human) (UniProt P05129)
PTK2 (human) = PTK2 (human) (UniProt Q05397)
RPS6KA1 KD1 KD2 (human) = RPS6KA1 KD1 KD2 (human) (UniProt Q15418)
RPS6KA2 KD1 KD2 (human) = RPS6KA2 KD1 KD2 (human) (UniProt Q15349)
RPS6KA4 KD2 (human) = RPS6KA4 KD2 (human) (UniProt O75676)
SRPK3 (human) = SRPK3 (human) (UniProt Q9UPE1)
TEK (human) = TEK (human) (UniProt Q02763)
TTK (human) = TTK (human) (UniProt P33981)
ZAP70 (human) = ZAP70 (human) (UniProt P43403)

Chain of CHEK2 (human) (O96017 whole entry, looked up): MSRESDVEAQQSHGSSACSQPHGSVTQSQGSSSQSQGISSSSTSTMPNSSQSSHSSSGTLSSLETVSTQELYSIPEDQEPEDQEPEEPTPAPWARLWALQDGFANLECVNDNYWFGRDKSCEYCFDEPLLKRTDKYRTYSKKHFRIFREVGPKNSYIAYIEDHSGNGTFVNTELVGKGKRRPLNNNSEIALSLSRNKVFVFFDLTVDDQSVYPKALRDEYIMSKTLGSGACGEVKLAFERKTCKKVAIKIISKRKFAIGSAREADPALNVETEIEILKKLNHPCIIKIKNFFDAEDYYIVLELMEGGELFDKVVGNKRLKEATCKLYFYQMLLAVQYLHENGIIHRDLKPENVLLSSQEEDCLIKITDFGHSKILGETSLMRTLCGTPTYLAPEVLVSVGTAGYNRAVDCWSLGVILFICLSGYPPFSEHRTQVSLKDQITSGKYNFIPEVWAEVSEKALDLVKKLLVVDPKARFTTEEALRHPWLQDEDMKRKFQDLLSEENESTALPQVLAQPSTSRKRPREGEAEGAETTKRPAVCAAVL
Chain of CDK5 CDK5R1 p25 (human) (Q00535 whole entry, looked up): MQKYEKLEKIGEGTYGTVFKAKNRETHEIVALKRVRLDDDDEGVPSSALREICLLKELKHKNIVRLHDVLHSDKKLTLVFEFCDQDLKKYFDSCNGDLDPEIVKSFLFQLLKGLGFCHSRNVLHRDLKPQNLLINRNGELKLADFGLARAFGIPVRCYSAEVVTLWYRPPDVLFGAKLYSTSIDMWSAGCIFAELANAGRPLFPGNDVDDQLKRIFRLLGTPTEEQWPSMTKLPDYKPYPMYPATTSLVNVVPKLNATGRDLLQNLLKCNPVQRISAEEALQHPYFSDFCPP
Chain of CDK5 CDK5R1 p25 (human) (Q15078 whole entry, looked up): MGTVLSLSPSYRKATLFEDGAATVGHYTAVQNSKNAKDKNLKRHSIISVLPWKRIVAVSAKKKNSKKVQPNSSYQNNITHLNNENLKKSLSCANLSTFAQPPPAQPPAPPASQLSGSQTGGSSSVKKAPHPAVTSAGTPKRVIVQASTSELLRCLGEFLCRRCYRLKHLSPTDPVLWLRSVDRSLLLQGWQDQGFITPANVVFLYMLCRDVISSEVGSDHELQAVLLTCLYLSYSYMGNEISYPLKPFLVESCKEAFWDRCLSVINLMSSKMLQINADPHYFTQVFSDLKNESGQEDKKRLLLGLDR
Chain of RPS6KA4 KD2 (human) (O75676 whole entry, looked up): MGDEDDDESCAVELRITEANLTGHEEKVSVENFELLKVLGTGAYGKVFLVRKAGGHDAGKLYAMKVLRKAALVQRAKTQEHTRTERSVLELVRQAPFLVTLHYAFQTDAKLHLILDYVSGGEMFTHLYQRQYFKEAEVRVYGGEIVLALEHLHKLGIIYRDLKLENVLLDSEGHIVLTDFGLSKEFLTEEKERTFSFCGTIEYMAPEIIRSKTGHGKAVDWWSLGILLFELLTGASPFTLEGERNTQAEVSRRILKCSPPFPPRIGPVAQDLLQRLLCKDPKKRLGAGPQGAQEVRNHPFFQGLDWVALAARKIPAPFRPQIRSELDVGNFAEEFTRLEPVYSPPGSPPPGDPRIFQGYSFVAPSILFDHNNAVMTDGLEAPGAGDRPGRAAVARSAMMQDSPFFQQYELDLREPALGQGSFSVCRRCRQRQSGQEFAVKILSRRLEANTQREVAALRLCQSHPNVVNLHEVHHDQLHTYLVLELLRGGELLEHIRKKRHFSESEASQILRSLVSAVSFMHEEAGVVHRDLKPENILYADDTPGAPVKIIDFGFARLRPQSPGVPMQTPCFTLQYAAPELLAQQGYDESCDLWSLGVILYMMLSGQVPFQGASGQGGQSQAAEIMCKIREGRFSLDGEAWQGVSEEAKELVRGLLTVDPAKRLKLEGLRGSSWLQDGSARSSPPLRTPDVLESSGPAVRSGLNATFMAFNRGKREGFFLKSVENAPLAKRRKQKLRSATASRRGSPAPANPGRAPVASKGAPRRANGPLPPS
Chain of PTK2 (human) (Q05397 whole entry, looked up): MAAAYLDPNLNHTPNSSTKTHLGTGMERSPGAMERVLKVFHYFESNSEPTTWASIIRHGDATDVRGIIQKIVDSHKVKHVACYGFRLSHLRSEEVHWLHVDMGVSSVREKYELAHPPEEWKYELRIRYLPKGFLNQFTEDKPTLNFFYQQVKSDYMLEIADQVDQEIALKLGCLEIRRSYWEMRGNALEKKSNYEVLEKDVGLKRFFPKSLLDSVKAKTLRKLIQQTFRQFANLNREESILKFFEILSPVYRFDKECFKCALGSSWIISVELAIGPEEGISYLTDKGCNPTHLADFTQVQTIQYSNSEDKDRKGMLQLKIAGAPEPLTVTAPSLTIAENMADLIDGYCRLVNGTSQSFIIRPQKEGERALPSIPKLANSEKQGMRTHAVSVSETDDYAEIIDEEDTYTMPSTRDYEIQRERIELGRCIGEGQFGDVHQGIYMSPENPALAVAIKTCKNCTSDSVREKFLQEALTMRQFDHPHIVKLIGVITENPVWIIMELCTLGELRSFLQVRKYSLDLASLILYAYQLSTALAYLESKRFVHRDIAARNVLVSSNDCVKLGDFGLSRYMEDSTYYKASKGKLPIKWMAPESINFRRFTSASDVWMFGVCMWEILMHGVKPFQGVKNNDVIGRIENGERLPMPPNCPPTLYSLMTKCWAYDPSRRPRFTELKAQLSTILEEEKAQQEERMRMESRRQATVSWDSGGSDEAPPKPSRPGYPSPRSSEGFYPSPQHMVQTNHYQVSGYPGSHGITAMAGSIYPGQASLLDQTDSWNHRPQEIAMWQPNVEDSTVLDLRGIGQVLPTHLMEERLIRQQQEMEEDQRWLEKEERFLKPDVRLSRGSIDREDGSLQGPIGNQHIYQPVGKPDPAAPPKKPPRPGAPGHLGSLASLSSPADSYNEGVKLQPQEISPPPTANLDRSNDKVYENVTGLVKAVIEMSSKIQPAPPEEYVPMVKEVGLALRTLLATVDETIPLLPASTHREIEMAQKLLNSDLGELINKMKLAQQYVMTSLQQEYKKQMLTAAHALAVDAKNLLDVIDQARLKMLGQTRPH
Chain of NUAK2 (human) (Q9H093 whole entry, looked up): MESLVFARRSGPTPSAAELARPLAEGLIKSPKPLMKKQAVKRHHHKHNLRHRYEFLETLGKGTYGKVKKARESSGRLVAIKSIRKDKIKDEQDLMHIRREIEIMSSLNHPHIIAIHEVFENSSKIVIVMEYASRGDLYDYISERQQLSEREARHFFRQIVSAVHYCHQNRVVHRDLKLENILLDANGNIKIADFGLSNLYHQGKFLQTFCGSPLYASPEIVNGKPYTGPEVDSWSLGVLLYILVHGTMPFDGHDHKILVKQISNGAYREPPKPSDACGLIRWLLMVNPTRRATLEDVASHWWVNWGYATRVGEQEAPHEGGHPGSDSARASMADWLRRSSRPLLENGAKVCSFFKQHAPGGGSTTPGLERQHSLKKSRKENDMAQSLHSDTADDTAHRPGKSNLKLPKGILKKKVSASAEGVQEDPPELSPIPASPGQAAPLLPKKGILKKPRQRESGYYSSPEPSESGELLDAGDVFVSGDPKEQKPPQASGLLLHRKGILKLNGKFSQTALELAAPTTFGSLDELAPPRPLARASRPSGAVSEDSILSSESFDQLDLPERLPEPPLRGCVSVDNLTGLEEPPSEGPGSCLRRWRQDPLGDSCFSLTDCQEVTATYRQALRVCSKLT
Chain of CAMK2A (human) (Q9UQM7 whole entry, looked up): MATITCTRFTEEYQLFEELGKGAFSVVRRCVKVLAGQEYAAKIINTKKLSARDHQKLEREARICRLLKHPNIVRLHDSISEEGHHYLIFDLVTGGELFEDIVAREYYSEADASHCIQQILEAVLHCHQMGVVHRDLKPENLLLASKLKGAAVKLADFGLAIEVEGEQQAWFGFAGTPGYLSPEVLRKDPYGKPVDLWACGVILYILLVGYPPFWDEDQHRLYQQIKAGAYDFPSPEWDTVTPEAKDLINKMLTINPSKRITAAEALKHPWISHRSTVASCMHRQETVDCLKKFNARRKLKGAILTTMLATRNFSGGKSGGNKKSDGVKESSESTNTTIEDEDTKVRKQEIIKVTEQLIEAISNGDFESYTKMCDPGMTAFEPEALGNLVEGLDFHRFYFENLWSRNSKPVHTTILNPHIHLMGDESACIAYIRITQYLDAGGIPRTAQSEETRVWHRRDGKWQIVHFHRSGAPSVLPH
Chain of FGR (human) (P09769 whole entry, looked up): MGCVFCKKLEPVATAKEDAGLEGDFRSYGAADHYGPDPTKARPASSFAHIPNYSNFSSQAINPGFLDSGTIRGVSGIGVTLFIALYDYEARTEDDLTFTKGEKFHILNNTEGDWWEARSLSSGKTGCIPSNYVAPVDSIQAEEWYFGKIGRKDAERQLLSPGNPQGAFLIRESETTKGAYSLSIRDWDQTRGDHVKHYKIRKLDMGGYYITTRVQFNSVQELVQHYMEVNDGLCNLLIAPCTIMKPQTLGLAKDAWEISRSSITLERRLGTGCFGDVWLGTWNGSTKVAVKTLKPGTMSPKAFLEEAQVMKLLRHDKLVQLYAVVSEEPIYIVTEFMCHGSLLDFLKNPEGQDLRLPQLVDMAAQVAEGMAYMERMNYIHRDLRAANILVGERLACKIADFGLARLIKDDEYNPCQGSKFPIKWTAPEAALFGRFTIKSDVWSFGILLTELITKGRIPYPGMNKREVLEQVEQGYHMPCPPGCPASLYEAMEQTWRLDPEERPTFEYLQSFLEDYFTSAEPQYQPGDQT
Chain of CSNK1A1 (human) (P48729 whole entry, looked up): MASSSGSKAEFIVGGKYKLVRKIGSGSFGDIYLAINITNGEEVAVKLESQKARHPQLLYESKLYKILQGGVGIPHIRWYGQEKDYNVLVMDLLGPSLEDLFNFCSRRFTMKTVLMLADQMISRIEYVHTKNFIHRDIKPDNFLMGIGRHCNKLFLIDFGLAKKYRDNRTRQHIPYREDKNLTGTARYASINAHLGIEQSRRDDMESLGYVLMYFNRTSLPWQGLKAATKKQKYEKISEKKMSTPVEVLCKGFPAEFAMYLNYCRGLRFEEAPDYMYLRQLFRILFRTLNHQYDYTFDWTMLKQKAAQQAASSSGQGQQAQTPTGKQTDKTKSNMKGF

What does the source list for `O=C1Nc2ccccc2/C1=C1/Nc2ccccc2/C1=N\OCCC(O)CO` (stereo not drawn)?
residual activity (ABL2 (human)): 38.5%; residual activity (AKT3 (human)): 92.9%; residual activity (ALK (human)): 38.1%; residual activity (CAMK2A (human)): 12.2%; residual activity (CDK5 CDK5R1 p25 (human)): 16.4%; residual activity (CDK6 CCND3 (human)): 10.2%; residual activity (CDK9 CCNT1 (human)): 52.5%; residual activity (CHEK2 (human)): 27%; residual activity (CSNK1A1 (human)): 84.8%; residual activity (DAPK2 (human)): 104%; residual activity (EPHA7 (human)): 71.4%; residual activity (EPHB2 (human)): 75%; residual activity (ERBB2 (human)): 95.3%; residual activity (FGR (human)): 11.6%; residual activity (GSK3A (human)): 7.31%; residual activity (HCK (human)): 23%; residual activity (HIPK4 (human)): 108%; residual activity (MAP3K14 (human)): 89%; residual activity (MAP3K2 (human)): 60.6%; residual activity (MAP3K7 TAB1 (human)): 50.5%; residual activity (MAP3K8 (human)): 123%; residual activity (MAPK10 (human)): 103%; residual activity (MAPK9 (human)): 44.3%; residual activity (MARK3 (human)): 75.2%; residual activity (MKNK2 (human)): 72.4%; residual activity (MLTK (human)): 76.4%; residual activity (MYLK2 (human)): 27.3%; residual activity (NTRK1 (human)): 3.84%; residual activity (NUAK2 (human)): 55.1%; residual activity (PKN2 (human)): 90.1%; residual activity (PLK3 (human)): 102%; residual activity (PRKACA (human)): 89.1%; residual activity (PRKCG (human)): 92%; residual activity (PTK2 (human)): 35%; residual activity (RPS6KA1 KD1 KD2 (human)): 8.85%; residual activity (RPS6KA2 KD1 KD2 (human)): 12.1%; residual activity (RPS6KA4 KD2 (human)): 21.7%; residual activity (SRPK3 (human)): 59.5%; residual activity (TEK (human)): 101%; residual activity (TTK (human)): 46.1%; residual activity (ZAP70 (human)): 97.8%

What does the source list for `Nc1nnc2[nH]c3ccccc3nc1-2`?
residual activity (ABL2 (human)): 95.5%; residual activity (AKT3 (human)): 95.3%; residual activity (ALK (human)): 96.7%; residual activity (CAMK2A (human)): 99.5%; residual activity (CDK5 CDK5R1 p25 (human)): 85.4%; residual activity (CDK6 CCND3 (human)): 105%; residual activity (CDK9 CCNT1 (human)): 81.6%; residual activity (CHEK2 (human)): 94.4%; residual activity (CSNK1A1 (human)): 101%; residual activity (DAPK2 (human)): 91%; residual activity (EPHA7 (human)): 95.3%; residual activity (EPHB2 (human)): 103%; residual activity (ERBB2 (human)): 95.2%; residual activity (FGR (human)): 96.3%; residual activity (GSK3A (human)): 91.6%; residual activity (HCK (human)): 98.6%; residual activity (HIPK4 (human)): 95.8%; residual activity (MAP3K14 (human)): 99.2%; residual activity (MAP3K2 (human)): 92.6%; residual activity (MAP3K7 TAB1 (human)): 100%; residual activity (MAP3K8 (human)): 81.3%; residual activity (MAPK10 (human)): 92.1%; residual activity (MAPK9 (human)): 103%; residual activity (MARK3 (human)): 102%; residual activity (MKNK2 (human)): 89.1%; residual activity (MLTK (human)): 96.3%; residual activity (MYLK2 (human)): 90.5%; residual activity (NTRK1 (human)): 88.3%; residual activity (NUAK2 (human)): 96.3%; residual activity (PKN2 (human)): 98.7%; residual activity (PLK3 (human)): 96.3%; residual activity (PRKACA (human)): 102%; residual activity (PRKCG (human)): 97.3%; residual activity (PTK2 (human)): 94.6%; residual activity (RPS6KA1 KD1 KD2 (human)): 97.9%; residual activity (RPS6KA2 KD1 KD2 (human)): 89.1%; residual activity (RPS6KA4 KD2 (human)): 79%; residual activity (SRPK3 (human)): 95.6%; residual activity (TEK (human)): 97%; residual activity (TTK (human)): 102%; residual activity (ZAP70 (human)): 102%

How did the residual activity (ABL2 (human)) turn out when `CN(C)C[C@H]1CCn2c(c(C3=C(c4cn(C)c5ccccc45)C(=O)NC3=O)c3ccccc32)C1` was run?
Its residual activity is 96.3%.

And the residual activity (AKT3 (human))?
The residual activity was 56.3%.

And the residual activity (ALK (human))?
Its residual activity is 99.6%.

And the residual activity (CAMK2A (human))?
Its residual activity is 100%.

What about the residual activity (CDK5 CDK5R1 p25 (human)) of the same compound?
The residual activity was 84.7%.

What about the residual activity (CDK6 CCND3 (human)) of the same compound?
Its residual activity is 95%.

What about the residual activity (CDK9 CCNT1 (human)) of the same compound?
Its residual activity is 39.6%.

And the residual activity (CHEK2 (human))?
Its residual activity is 95%.

And the residual activity (CSNK1A1 (human))?
The residual activity was 98.5%.

And the residual activity (DAPK2 (human))?
The residual activity was 90.4%.

What about the residual activity (EPHA7 (human)) of the same compound?
Its residual activity is 96.9%.

What about the residual activity (EPHB2 (human)) of the same compound?
Its residual activity is 110%.

What about the residual activity (ERBB2 (human)) of the same compound?
The residual activity was 95.9%.

And the residual activity (FGR (human))?
The residual activity was 97.2%.

And the residual activity (GSK3A (human))?
Its residual activity is 14.2%.

What about the residual activity (HCK (human)) of the same compound?
Its residual activity is 95.3%.

And the residual activity (HIPK4 (human))?
Its residual activity is 95.7%.

And the residual activity (MAP3K14 (human))?
The residual activity was 105%.

And the residual activity (MAP3K2 (human))?
Its residual activity is 94.6%.

And the residual activity (MAP3K7 TAB1 (human))?
Its residual activity is 95.3%.

And the residual activity (MAP3K8 (human))?
The residual activity was 95%.

And the residual activity (MAPK10 (human))?
Its residual activity is 101%.

And the residual activity (MAPK9 (human))?
Its residual activity is 105%.

What about the residual activity (MARK3 (human)) of the same compound?
Its residual activity is 92.4%.

And the residual activity (MKNK2 (human))?
Its residual activity is 85.8%.

And the residual activity (MLTK (human))?
Its residual activity is 87.3%.

What about the residual activity (MYLK2 (human)) of the same compound?
Its residual activity is 74.2%.

What about the residual activity (NTRK1 (human)) of the same compound?
The residual activity was 108%.

And the residual activity (NUAK2 (human))?
The residual activity was 121%.

And the residual activity (PKN2 (human))?
The residual activity was 87%.

What about the residual activity (PLK3 (human)) of the same compound?
The residual activity was 100%.

And the residual activity (PRKACA (human))?
Its residual activity is 87.2%.

What about the residual activity (PRKCG (human)) of the same compound?
Its residual activity is 6.93%.

What about the residual activity (PTK2 (human)) of the same compound?
Its residual activity is 95.9%.

What about the residual activity (RPS6KA1 KD1 KD2 (human)) of the same compound?
The residual activity was 5.9%.

What about the residual activity (RPS6KA2 KD1 KD2 (human)) of the same compound?
The residual activity was 3.57%.

What about the residual activity (RPS6KA4 KD2 (human)) of the same compound?
The residual activity was 33.3%.

And the residual activity (SRPK3 (human))?
Its residual activity is 100%.

And the residual activity (TEK (human))?
The residual activity was 98.4%.

What about the residual activity (TTK (human)) of the same compound?
Its residual activity is 105%.

And the residual activity (ZAP70 (human))?
Its residual activity is 105%.
